Source: US9782464B2, “Methods and compositions for inhibiting diseases of the central nervous system” (Board of Regents of the University of Nebraska, priority 2008, dated 2017)

Experiments:
MES23.5 cells = assay: Cathepsin B inhibition and neurotoxicity, microglial supernatants on MES23.5 cells; format: cell-based; conditions: inhibitor 1 μM, N-α-syn 100 nM
Experimental: MES 23.5 cells were cultured in 75-cm^2 flasks in DMEM/F12 with 15 mM HEPES (Invitrogen) containing N2 supplement (Invitrogen), 100 U/ml of penicillin, 100 μg/ml streptomycin, and 5% FBS. MES23.5 cells is a cell line derived using somatic cell fusion of rat embryonic mesencephalon cells and the murine neuroblastoma-glioma cell line N18TG2 that produce dopamine and express tyrosine hydroxylase (Crawford et al. (1992) J. Neuroscience 12:3392-3398). Cells were grown to 80% confluence then plated at a density of 10×10^4 cells on sterile glass coverslips. Microglia were plated in 6 well plates and incubated for 1 hour with or without 1 μM of cathepsin B inhibitors, CA-074 [cell impermeable] or CA-074 Me [cell permeable] (Sigma), in a 37° C., 5% CO2 incubator to inhibit residual cathepsin B expression (Gan et al. (2004) J. Biol. Chem., 279:5565-5572). […] MES 23.5 cell viability was assessed using the Live/Dead cytotoxicity assay (Invitrogen) as previously described. Live cells were distinguished by the uptake of calcein AM to acquire a green fluorescence [excitation/emission (ex/em) 495/515 nm], while dead cells acquired a red fluorescence (ex/em 495/635 nm) due to the uptake of ethidium homodimer-1 (EthD-1). Cell enumerations were performed using fluorescence microscopy (200× magnification, n=6 wells per group, 3 frames per well).

B6 SOD1 Tg mice = assay: COP-1 immunization of B6 SOD1 Tg mice

Compound | protection of DA cells v. N-α-syn alone (MES23.5 cells) [%] | increase of mean age of survival compared to PBS controls (B6 SOD1 Tg mice; 75 μg s.c. every other week) [%] | increase of mean age of survival compared to PBS controls (B6 SOD1 Tg mice; 75 μg s.c. weekly) [%]
CCCNC(=O)[C@H]1O[C@@H]1C(=O)N[C@H](C(=O)N1CCC[C@H]1C(=O)O)[C@@H](C)CC [CA-074] | 53 |  | 
glatiramer acetate [COP-1] |  | 6.1 | 9.9
